These results are taken from patent US7741354B2, “Inhibitors of glutaminyl cyclase” (Probiodrug AG, priority 2006, dated 2010).

pIC50: −log10 of the molar value. Read-outs that look alike come from different tables or passages of the source.

In the experiment the target is hQC (Homo sapiens, UniProt Q16769). The experiment can be described thus: Fluorometric (fluorescent) assay of hQC inhibition, IC50. Type of experiment: biochemical. A digest of the protocol: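 Two coupled fluorometric formats at 30° C, pH 8.0 Tris/HCl with EDTA: H-Gln-βNA at 0.2 mM read at 320/410 nm, or H-Gln-AMC at varied levels read at 380/460 nm, each started by adding QC.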
Chain of hQC (Q16769 29-361): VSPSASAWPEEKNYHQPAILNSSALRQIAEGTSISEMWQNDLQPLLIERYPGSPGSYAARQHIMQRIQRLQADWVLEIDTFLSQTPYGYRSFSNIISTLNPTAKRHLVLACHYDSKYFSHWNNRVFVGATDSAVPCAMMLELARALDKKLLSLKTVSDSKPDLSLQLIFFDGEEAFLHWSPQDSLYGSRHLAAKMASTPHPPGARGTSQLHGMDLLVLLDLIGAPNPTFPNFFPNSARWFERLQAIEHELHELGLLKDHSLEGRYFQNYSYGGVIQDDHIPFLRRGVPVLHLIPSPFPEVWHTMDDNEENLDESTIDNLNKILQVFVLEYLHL

The term pIC50 denotes the negative decadic logarithm of the IC50, by convention in mol/L. `CCOC(=O)C1CCCCC1n1nnnc1C(Nc1ccc2[nH]cnc2c1)c1c[nH]c2cc(C)ccc12` (stereo not shown) [compound 196]: the negative-log IC50 (pIC50) (hQC inhibition, read-out: IC50) was 5.07.

Regarding `CCCCn1nnnc1C(NCCCn1ccnc1)c1ccc2ccccc2n1` (stereo not shown) [compound 22, [(1-Butyl-1H-tetrazol-5-yl)-quinolin-2-yl-methyl]-(3-imidazol-1-yl-propyl)-amine], the pIC50 (read-out: IC50) was 5.51.

For the molecule `Fc1ccc2c(C(Nc3ccc4[nH]cnc4c3)c3nnnn3CC3CCCO3)c[nH]c2c1` (stereo not shown) [compound 144, (1H-Benzoimidazol-5-yl)-{(6-fluoro-1H-indol-3-yl)-[1-(tetrahydro-furan-2-ylmethyl)-1H-tetrazol-5-yl]-methyl}-amine], the negative-log IC50 (pIC50) (hQC inhibition, read-out: IC50) is 5.24.

`Fc1cc(C(Nc2ccc3[nH]cnc3c2)c2nnnn2C2CCCCC2)ccc1Cl` (stereo not shown) [compound 107, (1H-Benzoimidazol-5-yl)-[(4-chloro-3-fluoro-phenyl)-(1-cyclohexyl-1H-tetrazol-5-yl)-methyl]-amine]: the pIC50 (read-out: IC50) was 5.31.

With `COC(=O)Cn1nnnc1C(NCCCn1ccnc1)[C@@H]1CCC=CO1` (stereo partly drawn) [compound 56, {5-[(S)-3,4-Dihydro-2H-pyran-2-yl-(3-imidazol-1-yl-propylamino)-methyl]-tetrazol-1-yl}-acetic methyl ester], where the note is “read-out: IC50”, the pIC50 is 5.31.

On to `N#Cc1cc(C(NCCCn2ccnc2)c2nnnn2Cc2ccc(Cl)cc2)ccc1F` (stereo not shown) [compound 5, 5-[[1-(4-Chloro-benzyl)-1H-tetrazol-5-yl]-(3-imidazol-1-yl-propylamino)-methyl]-2-fluoro-benzonitrile], for which, where the note is “read-out: IC50”, the negative logarithm of the IC50 (pIC50) is 5.17.

On to `COCCCn1nnnc1C(NCCCn1ccnc1)c1ccc(Cl)c(Cl)c1` (stereo not shown) [compound 32, {(3,4-Dichloro-phenyl)-[1-(3-methoxy-propyl)-1H-tetrazol-5-yl]-methyl}-(3-imidazol-1-yl-propyl)-amine], for which the negative-log IC50 (pIC50) (read-out: IC50) was 5.12.

On to `Brc1cc(Br)cc(C(Nc2ccc3[nH]cnc3c2)c2nnnn2C2CCCCC2)c1` (stereo not shown) [compound 175, (1H-Benzoimidazol-5-yl)-[(1-cyclohexyl-1H-tetrazol-5-yl)-(3,5-dibromo-phenyl)-methyl]-amine], for which, for the setting “hQC inhibition, read-out: IC50”, the negative-log IC50 (pIC50) is 5.51.

For `CC(Cc1ccc2c(c1)OCO2)C(Nc1ccc2[nH]cnc2c1)c1nnnn1C1CCCCC1` (stereo not shown) [compound 116, [3-Benzo[1,3]dioxol-5-yl-1-(1-cyclohexyl-1H-tetrazol-5-yl)-2-methyl-propyl]-(1H-benzoimidazol-5-yl)-amine], the negative-log IC50 (pIC50) (hQC inhibition, read-out: IC50) was 5.12.

As to `CCCC(Nc1ccc2[nH]cnc2c1)c1nnnn1Cc1ccccc1` (stereo not shown) [compound 110, (1H-Benzoimidazol-5-yl)-[1-(1-benzyl-1H-tetrazol-5-yl)-butyl]-amine], the negative logarithm of the IC50 (pIC50) (read-out: IC50) is 5.24.

`C/C=C/C=C/C(Nc1ccc2[nH]cnc2c1)c1nnnn1Cc1cccnc1` (stereo not shown) [compound 173, (1H-Benzoimidazol-5-yl)-[(2E,4E)-1-(1-pyridin-3-ylmethyl-1H-tetrazol-5-yl)-hexa-2,4-dienyl]-amine]: the pIC50 (hQC inhibition, read-out: IC50) is 5.07.

Consider `c1ccc(C(c2ccccc2)n2nnnc2C(Nc2ccc3[nH]cnc3c2)c2cnc3ccccc3c2)cc1` (stereo not shown) [compound 126, [(1-Benzhydryl-1H-tetrazol-5-yl)-quinolin-3-yl-methyl]-(1H-benzoimidazol-5-yl)-amine], for which the pIC50 (hQC inhibition, read-out: IC50) is 5.31.

For `c1cn(CCCNC(c2ccc3[nH]ccc3c2)c2nnnn2C2CC2)cn1` (stereo not shown) [compound 69, [(1-Cyclopropyl-1H-tetrazol-5-yl)-(1H-indol-5-yl)-methyl]-(3-imidazol-1-yl-propyl)-amine], the pIC50 (read-out: IC50) is 5.31.

Regarding `Clc1ccc(Cn2nnnc2C(NCCCn2ccnc2)c2ccc3[nH]ccc3c2)cc1` (stereo not shown) [Compound 6, [[1-(4-Chloro-benzyl)-1H-tetrazol-5-yl]-(1H-indol-5-yl)-methyl]-(3-imidazol-1-yl-propyl)-amine], the pIC50 by setting is: (purified compound from preparative synthesis, fluorescent assay, read-out: IC50 hQC) 6.35; (read-out: IC50) 6.40.

Take `CC(CC(Nc1ccc2[nH]cnc2c1)c1nnnn1CC1CCCO1)c1ccccc1` (stereo not shown) [compound 97, (1H-Benzoimidazol-5-yl)-{3-phenyl-1-[1-(tetrahydro-furan-2-ylmethyl)-1H-tetrazol-5-yl]-butyl}-amine]: the negative logarithm of the IC50 (pIC50) (read-out: IC50) is 5.40.

Turning to `Cc1cc(C)cc(C(Nc2ccc3[nH]cnc3c2)c2nnnn2Cc2ccccc2)c1` (stereo not shown) [compound 124, (1H-Benzoimidazol-5-yl)-[(1-benzyl-1H-tetrazol-5-yl)-(3,5-dimethyl-phenyl)-methyl]-amine], the pIC50 (hQC inhibition, read-out: IC50) is 5.24.

For `Cc1ccc(C(C)CC(Nc2ccc3[nH]cnc3c2)c2nnnn2CC2CCCO2)o1` (stereo not shown) [compound 111, (1H-Benzoimidazol-5-yl)-{3-(5-methyl-furan-2-yl)-1-[1-(tetrahydro-furan-2-ylmethyl)-1H-tetrazol-5-yl]-butyl}-amine], for the setting “read-out: IC50”, the pIC50 is 5.24.

Consider `Brc1cc(Br)cc(C(Nc2ccc3[nH]cnc3c2)c2nnnn2-c2ccc(Oc3ccccc3)cc2)c1` (stereo not shown) [compound 178, (1H-Benzoimidazol-5-yl)-{(3,5-dibromo-phenyl)-[1-(4-phenoxy-phenyl)-1H-tetrazol-5-yl]-methyl}-amine], for which the pIC50 (hQC inhibition, read-out: IC50) is 5.24.

Take `Brc1cc(Br)cc(C(Nc2ccc3[nH]cnc3c2)c2nnnn2C(c2ccccc2)c2ccccc2)c1` (stereo not shown) [compound 186, [(1-Benzhydryl-1H-tetrazol-5-yl)-(3,5-dibromo-phenyl)-methyl]-(1H-benzoimidazol-5-yl)-amine]: the pIC50 (hQC inhibition, read-out: IC50) is 5.24.

Regarding `O=C(Cn1nnnc1C(Nc1ccc2[nH]cnc2c1)c1cc(Br)cc(Br)c1)NCCc1c[nH]c2ccccc12` (stereo not shown) [compound 187, 2-{5-[(1H-Benzoimidazol-5-ylamino)-(3,5-dibromo-phenyl)-methyl]-tetrazol-1-yl}-N-[2-(1H-indol-3-yl)-ethyl]-acetamide], the pIC50 (hQC inhibition, read-out: IC50) was 5.89.

In the case of `CCCOc1cccc(C(Nc2ccc3[nH]cnc3c2)c2nnnn2CC2CCCO2)c1` (stereo not shown) [compound 141, (1H-Benzoimidazol-5-yl)-{(3-propoxy-phenyl)-[1-(tetrahydro-furan-2-ylmethyl)-1H-tetrazol-5-yl]-methyl}-amine], the pIC50 (hQC inhibition, read-out: IC50) was 5.40.

`Cn1nnnc1C(NCCCn1ccnc1)c1ccc2ccccc2n1` (stereo not shown) [compound 31, (3-Imidazol-1-yl-propyl)-[(1-methyl-1H-tetrazol-5-yl)-quinolin-2-yl-methyl]-amine]: where the note is “read-out: IC50”, the pIC50 was 5.31.

As to `O=C(Cn1nnnc1C(Nc1ccc2[nH]cnc2c1)c1cccs1)N1CCc2ccccc2C1` (stereo not shown) [compound 120, 2-{5-[(1H-Benzoimidazol-5-ylamino)-thiophen-2-yl-methyl]-tetrazol-1-yl}-1-(3,4-dihydro-1H-isoquinolin-2-yl)-ethanone], the negative logarithm of the IC50 (pIC50) (hQC inhibition, read-out: IC50) was 5.07.

`COC(=O)Cn1nnnc1C(NCCCn1ccnc1)c1ccc(Cl)c(Cl)c1` (stereo not shown) [compound 50, {5-[(3,4-Dichloro-phenyl)-(3-imidazol-1-yl-propylamino)-methyl]-tetrazol-1-yl}-acetic methyl ester]: where the note is “read-out: IC50”, the negative logarithm of the IC50 (pIC50) is 5.40.

Consider `CSCCC(Nc1ccc2[nH]cnc2c1)c1nnnn1C(c1ccccc1)c1ccccc1` (stereo not shown) [compound 95, [1-(1-Benzhydryl-1H-tetrazol-5-yl)-3-methylsulfanyl-propyl]-(1H-benzoimidazol-5-yl)-amine], for which, for the setting “read-out: IC50”, the negative-log IC50 (pIC50) is 5.31.

Take `Clc1ccc(Cn2nnnc2C(Nc2ccc3[nH]cnc3c2)c2ccc(Cl)cc2)cc1` (stereo not shown) [compound 136, (1H-Benzoimidazol-5-yl)-[[1-(4-chloro-benzyl)-1H-tetrazol-5-yl]-(4-chloro-phenyl)-methyl]-amine]: the negative logarithm of the IC50 (pIC50) (hQC inhibition, read-out: IC50) is 5.40.

For `COCCn1nnnc1C(NCCCn1ccnc1)c1ccc2[nH]ccc2c1` (stereo not shown) [compound 41, (3-Imidazol-1-yl-propyl)-{(1H-indol-5-yl)-[1-(2-methoxy-ethyl)-1H-tetrazol-5-yl]-methyl}-amine], the negative-log IC50 (pIC50) (read-out: IC50) was 5.31.

For the molecule `CC(C)(C)OC(=O)Cn1nnnc1C(Nc1ccc2[nH]cnc2c1)c1ccc2c(c1)OCO2` (stereo not shown) [compound 119, {5-[Benzo[1,3]dioxol-5-yl-(1H-benzoimidazol-5-ylamino)-methyl]-tetrazol-1-yl}-acetic acid tert-butyl ester], the pIC50 (hQC inhibition, read-out: IC50) is 5.66.

On to `CCOC(=O)C1CCCCC1n1nnnc1C(CC(C)c1ccc(C)o1)Nc1ccc2[nH]cnc2c1` (stereo not shown) [compound 202], for which, under “hQC inhibition, read-out: IC50”, the pIC50 was 5.17.

For the molecule `COC(=O)Cn1nnnc1C1(NCCCn2ccnc2)CCC1` [compound 49, {5-[1-(3-Imidazol-1-yl-propylamino)-cyclobutyl]-tetrazol-1-yl}-acetic methyl ester], the pIC50 (read-out: IC50) is 6.40.

Take `c1ccc2ncc(C(Nc3ccc4[nH]cnc4c3)c3nnnn3CC3CCCO3)cc2c1` (stereo not shown) [compound 102, (1H-Benzoimidazol-5-yl)-{quinolin-3-yl-[1-(tetrahydro-furan-2-ylmethyl)-1H-tetrazol-5-yl]-methyl}-amine]: the pIC50 (read-out: IC50) was 5.66.

For `Oc1cccc2ccc(C(NCCCn3ccnc3)c3nnnn3Cc3ccc(Cl)cc3)nc12` (stereo not shown) [compound 4, 2-[[1-(4-Chloro-benzyl)-1H-tetrazol-5-yl]-(3-imidazol-1-yl-propylamino)-methyl]-quinolin-8-ol], under “read-out: IC50”, the pIC50 was 5.31.

On to `c1ccc(Cn2nnnc2C(Nc2ccc3[nH]cnc3c2)c2ccc3nsnc3c2)cc1` (stereo not shown) [compound 147], for which, where the note is “hQC inhibition, read-out: IC50”, the negative logarithm of the IC50 (pIC50) is 5.89.

As for `COCCCn1nnnc1C(NCCCn1ccnc1)c1cc(O)ccc1C` (stereo not shown) [compound 33, 3-{(3-Imidazol-1-yl-propylamino)-[1-(3-methoxy-propyl)-1H-tetrazol-5-yl]-methyl}-4-methyl-phenol], the pIC50 (read-out: IC50) was 5.40.

On to `Oc1ccc(C(Nc2ccc3[nH]cnc3c2)c2nnnn2Cc2ccc(Cl)cc2)cc1` (stereo not shown) [compound 191, 4-{(1H-Benzoimidazol-5-ylamino)-[1-(4-chloro-benzyl)-1H-tetrazol-5-yl]-methyl}-phenol], for which the pIC50 (hQC inhibition, read-out: IC50) is 5.51.

As to `c1ccc2nc(C(NCCCn3ccnc3)c3nnnn3C3CC3)ccc2c1` (stereo not shown) [compound 70, [(1-Cyclopropyl-1H-tetrazol-5-yl)-quinolin-2-yl-methyl]-(3-imidazol-1-yl-propyl)-amine], the pIC50 (read-out: IC50) is 5.24.
